# In PMC5698723, “Oxetane Grafts Installed Site‐Selectively on Native Disulfides to Enhance Protein Stability and Activity In Vivo” (Angewandte Chemie (International Ed. in English), 2017):
# Experiments:
# [1] = Stability of stapled cyclic peptides in human plasma; assay type: in vitro ADME; settings: around 1 mM peptide in H2O (100 µL) + 1 µL reconstituted human plasma, 37 °C, 48 h, HPLC read-out (212 nm)
# Experimental: 6. Stability test of stapled cyclic peptides […]
# (§1) 27), 15 min, λ = 212nm, flow=3.5)]. […]
# A 100 µL aliquot of stapled peptide (around 1 mM) in H2O was treated with 1 µL of
# reconstituted human plasma (Sigma-Aldrich) and the resulting mixture vortexed for 30 s and
# then shaken at 37 °C. After 48 h, an aliquot of each reaction mixture was analysed by HPLC
# (YMC-Pack Pro C18 column (5 µ, 250 mm × 10 mm), isocratic: acetonitrile+0.1% TFA
# (§2) /water+0.1% TFA (73-27), 15 min, λ = 212nm, flow=3.5)).
# [2] = Stability of stapled cyclic peptides in GSH solution; assay type: physicochemical; settings: around 1 mM peptide in H2O, 1 mM GSH, 37 °C, 48 h, HPLC read-out (212 nm)
# Experimental: 6. Stability test of stapled cyclic peptides
# A 100 µL aliquot of stapled peptide (around 1 mM) in H2O was treated with 5.3 µL of a 20 mM GSH solution (to 1 mM) and the resulting mixture vortexed for 30 s and then shaken at 37 °C. After 48 h, an aliquot of each reaction mixture was analysed by HPLC [YMC-Pack Pro C18 column (5 µ, 250 mm × 10 mm), isocratic: acetonitrile+0.1% TFA /water+0.1% TFA (73- […]
# as §1
# (YMC-Pack Pro C18 column (5 µ, 250 mm × 10 mm), isocratic: acetonitrile+0.1% TFA […]
# as §2
Structure (SMILES),stability in human plasma [1],stability in the presence of glutathione (GSH) [2]
C[C@H](N)C(=O)NCC(=O)N[C@H]1CSCC2(COC2)CSC[C@@H](C(=O)O)NC(=O)[C@H](CO)NC(=O)[C@H]([C@@H](C)O)NC(=O)[C@H](Cc2ccccc2)NC(=O)[C@H]([C@@H](C)O)NC(=O)[C@H](CCCCN)NC(=O)[C@H](Cc2c[nH]c3ccccc23)NC(=O)[C@H](Cc2ccccc2)NC(=O)[C@H](Cc2ccccc2)NC(=O)[C@H](CC(N)=O)NC(=O)[C@H](CCCCN)NC1=O [compound 3],remain intact,remain intact
C[C@@H](O)[C@@H]1NC(=O)[C@H](CCCCN)NC(=O)[C@@H](Cc2c[nH]c3ccccc23)NC(=O)[C@H](Cc2ccccc2)NC(=O)[C@@H](NC(=O)[C@H](N)Cc2ccccc2)CSCC2(COC2)CSC[C@@H](C(=O)N[C@H](CO)[C@@H](C)O)NC1=O [compound 5],remain intact,remain intact
